Experimental data from PMC11999280, “Design and screening of novel endosomal escape compounds that enhance functional delivery of oligonucleotides in vitro” (Molecular Therapy. Nucleic Acids, 2025).

Legend:
Assay type in all cases: cell-based
[1] = test system: mCherry-GAL9 expressing NCI-H358 cells; test: GAL9 recruitment assay, NCI-H358; details: calculated mean from >3 independent exp.
Description: (§1) Experiments assessing GAL9 localization as an indicator for endosomal remodeling were performed as previously described[15] using 8× stablemCherry-GAL9 expressing cell lines, SHSY5Y, U2OS, 16HBE, NCI-H358, HuH7, HepG2, HEK293, and HeLa. For mCherry-GAL9 recruitment, 3,000 or 6,500 cells/well (depending upon cell line) were seeded into 384-well CellCarrier Ultra plates 24 h prior to treatment (PerkinElmer, catalog no. 6007558). An Echo 655T acoustic dispenser (Labcyte) was used for EEE dose-response preparation by transferring to the cell plate. At assay endpoints, cells were PBS washed, 4% paraformaldehyde fixed at room temperature […] (VWR, catalog no. 9713.1000), and nuclei stained with PBS +1 μg/mL Hoechst 33342 (Thermo Fisher Scientific, catalog no. H21492).
(§2) Imaging was performed using a spinning-disk confocal microscope (Yokogawa: CV8000) with a ×20w objective (numerical aperture 1.0). Cells and mCherry-GAL9 structure identification and quantification were done using Columbus image-analysis software (PerkinElmer version 2.9.0). Data processing was done using Spotfire (Tibco version 11.4) and Prism (GraphPad version 9.1.0). Image panels were assembled using the FigureJ plugin for FIJI.[43] All mCherry-GAL9 experiments were performed three times (N = 3) with duplicated wells per treatment (n = 2).

[2] = test system: mCherry-GAL9 expressing HeLa cells; test: GAL9 recruitment assay, HeLa; details: calculated mean from >3 independent exp.
Description: as §1, §2

[3] = test system: mCherry-GAL9 expressing HepG2 cells; test: GAL9 recruitment assay, HepG2; details: calculated mean from >3 independent exp.
Description: as §1, §2

[4] = test system: HeLa_Luc705 cells (pLuc/705 splice-switching reporter); test: Functional 705-SSO delivery, luciferase splice-switching assay; details: HeLa-Luc705 + 2 µM SSO; EEE 2.5 - 3 µM; mean from >3 independent experiments
Description: Therefore, next, we functionally screened the SSO delivery in the HeLa_Luc705 reporter cell line. HeLa_Luc705 carries a pLuc/705 splice-switching reporter luciferase gene interrupted by a mutated β-globin intron, which creates a preferentially used cryptic 5′ splice site leading to aberrant splicing. Functional SSO delivery masks the cryptic site, redirecting the splicing machinery to the right splicing site, allowing the measurement of luciferase expression (Figure S1).[25]^,[26]^,[27]^,[28] We used SSO transfection with LF2000 as transfection control and the previously published endosomal escape enhancer CMP05 (here, EEE2) as positive control.[15]
For the assessment of functional SSO therapeutics, a HeLa_Luc705 cell line was grown in DMEM media supplemented with 10% fetal bovine serum (FBS). For most treatments, 10,000 cells/well were seeded in a 96-well plate, 24 h pre-incubated with 1- to 2-μM oligonucleotide, and then treated at the described EEE concentration. At 24 h post-treatment, cells were PBS rinsed and collected for further analysis (treatments and incubation times changed accordingly to the experiment design). Luciferase readout was performed as previously described,[15] using a GloMax 96-well plate microplate luminometer (Promega) immediately after adding 30 μL auto-injected luciferin substrate (Promega Firefly Luciferase Assay System; Thermo Scientific, catalog no. 16174) in a white-walled 96-well plate containing 30 μL 0.1% Triton X-100 (Sigma-Aldrich) cell lysed. Photon exposure time and delay were set to 10 and 2 s after injection. LF2000 was used as the transfection reagent control (Thermo Scientific, catalog no. 11668019). For EEE experiments using 1 or 2 μM SSOs, the control was prepared using lipofection with 100–200 nM SSO; this is to avoid complex induced cell toxicity.
705-SSO was purchased from and synthesized by Integrated DNA Technologies. The 705-SSO sequence was previously published, containing 2′-O-methylated bases and only phosphorothioate-saturated backbone linkages were included.[15] The 705-SSO was high-performance liquid chromatography purified, shipped, and stored in IDTE buffer (10 mM Tris, 0.1 mM EDTA).

[5] = test system: mCherry-GAL9 expressing HEK293 cells; test: GAL9 recruitment assay, HEK293; details: calculated mean from >3 independent exp.
Description: as §1, §2

[6] = test system: mCherry-GAL9 expressing U2OS cells; test: GAL9 recruitment assay, U2OS; details: calculated mean from >3 independent exp.
Description: as §1, §2

[7] = test system: mCherry-GAL9 expressing SHSY5Y cells; test: GAL9 recruitment assay, SHSY5Y; details: calculated mean from >3 independent exp.
Description: as §1, §2

[8] = test system: mCherry-GAL9 expressing 16HBE cells; test: GAL9 recruitment assay, 16HBE; details: calculated mean from >3 independent exp.
Description: as §1, §2

[9] = test system: mCherry-GAL9 expressing HuH7 cells; test: GAL9 recruitment assay, HuH7; details: calculated mean from >3 independent exp.
Description: as §1, §2

## CCN1CCC(n2cc(Nc3ncc(F)c(-n4ccc5c(C#N)cccc54)n3)c(OC)n2)CC1 [EEE11]
[1]; EEE 0.31 µM
  Gal9 response compared to reference: 0.016
[1]; EEE 0.62 µM
  Gal9 response compared to reference: 0.020
[1]; EEE 1.25 µM
  Gal9 response compared to reference: 0.036
[1]; EEE 2.5 µM
  Gal9 response compared to reference: 0.143
[1]; EEE 5 µM
  Gal9 response compared to reference: 0.614
[1]; EEE 10 µM
  Gal9 response compared to reference: 0.576
[2]; EEE 0.31 µM
  Gal9 response compared to reference: 0.005
[2]; EEE 0.62 µM
  Gal9 response compared to reference: 0.004
[2]; EEE 1.25 µM
  Gal9 response compared to reference: 0.013
[2]; EEE 2.5 µM
  Gal9 response compared to reference: 0.253
[2]; EEE 5 µM
  Gal9 response compared to reference: 0.553
[2]; EEE 10 µM
  Gal9 response compared to reference: 0.370
[3]; EEE 0.31 µM
  Gal9 response compared to reference: 0.009
[3]; EEE 0.62 µM
  Gal9 response compared to reference: 0.008
[3]; EEE 1.25 µM
  Gal9 response compared to reference: 0.007
[3]; EEE 2.5 µM
  Gal9 response compared to reference: 0.019
[3]; EEE 5 µM
  Gal9 response compared to reference: 0.163
[3]; EEE 10 µM
  Gal9 response compared to reference: 0.568
[4]
  Luciferase expression compared to reference: 2.093
[5]; EEE 0.31 µM
  Gal9 response compared to reference: 0.027
[5]; EEE 0.62 µM
  Gal9 response compared to reference: 0.022
[5]; EEE 1.25 µM
  Gal9 response compared to reference: 0.106
[5]; EEE 2.5 µM
  Gal9 response compared to reference: 0.438
[5]; EEE 5 µM
  Gal9 response compared to reference: 0.779
[5]; EEE 10 µM
  Gal9 response compared to reference: 0.493
[6]; EEE 0.31 µM
  Gal9 response compared to reference: 0.012
[6]; EEE 0.62 µM
  Gal9 response compared to reference: 0.015
[6]; EEE 1.25 µM
  Gal9 response compared to reference: 0.018
[6]; EEE 2.5 µM
  Gal9 response compared to reference: 0.048
[6]; EEE 5 µM
  Gal9 response compared to reference: 0.317
[6]; EEE 10 µM
  Gal9 response compared to reference: 0.483
[7]; EEE 0.31 µM
  Gal9 response compared to reference: 0.014
[7]; EEE 0.62 µM
  Gal9 response compared to reference: 0.018
[7]; EEE 1.25 µM
  Gal9 response compared to reference: 0.385
[7]; EEE 2.5 µM
  Gal9 response compared to reference: 0.801
[7]; EEE 5 µM
  Gal9 response compared to reference: 0.691
[7]; EEE 10 µM
  Gal9 response compared to reference: 0.469
[8]; EEE 0.31 µM
  Gal9 response compared to reference: 0.013
[8]; EEE 0.62 µM
  Gal9 response compared to reference: 0.013
[8]; EEE 1.25 µM
  Gal9 response compared to reference: 0.056
[8]; EEE 2.5 µM
  Gal9 response compared to reference: 0.167
[8]; EEE 5 µM
  Gal9 response compared to reference: 0.507
[8]; EEE 10 µM
  Gal9 response compared to reference: 0.623
[9]; EEE 0.31 µM
  Gal9 response compared to reference: 0.009
[9]; EEE 0.62 µM
  Gal9 response compared to reference: 0.008
[9]; EEE 1.25 µM
  Gal9 response compared to reference: 0.023
[9]; EEE 2.5 µM
  Gal9 response compared to reference: 0.154
[9]; EEE 5 µM
  Gal9 response compared to reference: 0.258
[9]; EEE 10 µM
  Gal9 response compared to reference: 0.222
